Data: patent US20130096055A1, “LONG-ACTING Y2 RECEPTOR AGONISTS” (Novo Nordisk A/S, priority 2009, published 2013)
Starred links: 1 amine or outer side, 2 acyl side, 3 side chain; linkers in the order of their positions; H or OH if unused. Groups on a side chain read outwards from the residue. No end group written: not given here. *: point of attachment. C18 diacid = O=C(O)CCCCCCCCCCCCCCCCC(=O)*; γGlu = O=C(O)[C@H](CCC(=O)[*:2])N[*:1]; AEEA = NCCOCCOCC(=O)O

What was measured:
[1] = target: T1, Y1 receptor (Homo sapiens, UniProt P25929); assay: Assay (II) Y1 receptor ACTOne potency assay; type: cell-based
T1 construct: expressed in transfected cells; host or cells: ACTOne HEK-293 cells
T1 sequence (P25929 1-384): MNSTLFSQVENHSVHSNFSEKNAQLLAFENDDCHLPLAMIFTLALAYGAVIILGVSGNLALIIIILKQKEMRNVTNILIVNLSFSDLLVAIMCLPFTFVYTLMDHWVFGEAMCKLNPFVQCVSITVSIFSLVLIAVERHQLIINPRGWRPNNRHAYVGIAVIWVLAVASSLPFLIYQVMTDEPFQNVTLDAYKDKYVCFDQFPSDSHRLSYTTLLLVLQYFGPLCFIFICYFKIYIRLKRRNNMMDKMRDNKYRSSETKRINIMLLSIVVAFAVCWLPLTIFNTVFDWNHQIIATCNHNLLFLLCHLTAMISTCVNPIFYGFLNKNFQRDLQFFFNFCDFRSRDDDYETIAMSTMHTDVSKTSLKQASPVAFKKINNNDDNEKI
Source text: ACTOne™ is an easily scaleable cAMP biosensor HTS platform for measurement of Gs and Gi coupled 7™ receptor signalling from BD Biosciences (San Jose, Calif.). The cells express a biosensor developed around a modified rat olfactory cyclic nucleotide gated (CNG) calcium channel—a fairly non-discriminatory ion channel that responds to cAMP and cGMP. The CNG has been engineered to be cAMP selective and thus function as a cAMP responsive biosensor that signals through calcium or membrane potential responsive dyes.

[2] = target: T2, human Y5 receptor (Homo sapiens, UniProt Q15761); assay: Assay (III) Y5 receptor IPOne potency assay; type: cell-based
T2 construct: expressed in transfected cells
T2 sequence (Q15761 1-445): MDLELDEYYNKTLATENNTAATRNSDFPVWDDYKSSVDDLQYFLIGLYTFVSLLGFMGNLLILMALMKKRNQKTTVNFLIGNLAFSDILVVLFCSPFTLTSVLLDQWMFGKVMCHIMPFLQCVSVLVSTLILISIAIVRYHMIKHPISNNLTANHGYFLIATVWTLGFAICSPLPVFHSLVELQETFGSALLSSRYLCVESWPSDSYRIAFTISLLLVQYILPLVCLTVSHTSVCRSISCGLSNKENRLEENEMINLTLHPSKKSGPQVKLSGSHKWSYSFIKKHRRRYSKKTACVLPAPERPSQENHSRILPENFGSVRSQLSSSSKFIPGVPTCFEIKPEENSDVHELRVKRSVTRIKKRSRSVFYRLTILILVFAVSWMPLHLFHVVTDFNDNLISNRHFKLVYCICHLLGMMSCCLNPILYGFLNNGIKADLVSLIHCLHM

[3] = target: T3, Y1 receptor (UniProt P25929 1-384, limits assumed); assay: cell-based or functional assay
T3 sequence (looked up): T1 sequence (P25929 1-384)

[4] = target: T4, human Y5 receptor (human, UniProt Q15761 1-445); assay: cell-based or functional assay
T4 sequence (looked up): T2 sequence (Q15761 1-445)

[5] = target: T5, Y2 receptor (UniProt P49146 1-381, limits assumed); assay: cell-based or functional assay
T5 sequence (looked up): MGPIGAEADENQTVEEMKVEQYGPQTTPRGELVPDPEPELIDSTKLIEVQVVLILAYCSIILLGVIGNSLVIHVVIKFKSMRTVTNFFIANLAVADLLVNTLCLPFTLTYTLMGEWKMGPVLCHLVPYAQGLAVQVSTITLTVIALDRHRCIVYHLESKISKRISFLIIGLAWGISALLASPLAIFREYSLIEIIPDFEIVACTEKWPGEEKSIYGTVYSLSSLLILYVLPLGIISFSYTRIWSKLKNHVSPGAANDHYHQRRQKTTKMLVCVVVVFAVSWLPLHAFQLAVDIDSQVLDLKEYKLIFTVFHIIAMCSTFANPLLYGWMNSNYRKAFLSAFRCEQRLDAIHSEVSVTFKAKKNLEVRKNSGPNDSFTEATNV

Row | Molecule | EC50 [1] [nM] | Receptor potency Y1/Y2 ratio ([1]; ratio of Y1 (Assay II) to Y2 (Assay I) receptor potency) | EC50 [2] [nM] | Receptor potency Y5/Y2 ratio ([2]; ratio of Y5 (Assay III) to Y2 (Assay I) receptor potency) | Receptor potency Y1 (Assay (II), ACTOne) [3] [nM] | Receptor potency Y5 (Assay (III), IPOne) [4] [nM] | Receptor potency Y2 (Assay (I), ACTOne) [5] [nM]
1 | CC[C@H](C)[C@H](N)C(=O)N[C@@H](CCCNC(=N)N)C(=O)N1CCC[C@H]1C(=O)N[C@@H](CCC(=O)O)C(=O)N[C@@H](C)C(=O)N1CCC[C@H]1C(=O)NCC(=O)N[C@@H](CCC(=O)O)C(=O)N[C@@H](CC(=O)O)C(=O)N[C@@H](C)C(=O)N[C@@H](CO)C(=O)N1CCC[C@H]1C(=O)N[C@@H](CCC(=O)O)C(=O)N[C@@H](CCC(=O)O)C(=O)N[C@@H](CC(C)C)C(=O)N[C@@H](CCC(=O)O)C(=O)N[C@@H](CCCNC(=N)N)C(=O)N[C@@H](Cc1ccc(O)cc1)C(=O)N[C@@H](Cc1ccc(O)cc1)C(=O)N[C@@H](C)C(=O)N[C@@H](CO)C(=O)N[C@@H](CC(C)C)C(=O)N[C@@H](CCCNC(=N)N)C(=O)N[C@@H](Cc1c[nH]cn1)C(=O)N[C@@H](Cc1ccc(O)cc1)C(=O)N[C@@H](CC(C)C)C(=O)N[C@@H](CCC(N)=O)C(=O)N[C@@H](CCCCNC(=O)COCCOCCNC(=O)COCCOCCNC(=O)CC[C@H](NC(=O)CCCCCCCCCCCCCCCCC(=O)O)C(=O)O)C(=O)N[C@H](C(=O)N[C@H](C(=O)N[C@@H](CCCNC(=N)N)C(=O)N[C@@H](CCC(N)=O)C(=O)N[C@@H](CCCNC(=N)N)C(=O)N[C@@H](Cc1ccc(O)cc1)C(N)=O)[C@@H](C)O)C(C)C [SEQ ID NO: 39, N-epsilon30[2-(2-{2-[2-(2-{2-[(S)-4-Carboxy-4-(17-carboxyheptadecanoylamino)butyrylamino]ethoxy}ethoxy)acetylamino]ethoxy}ethoxy)acetyl][Arg4,Glu18,Gln29,Lys30]hPYY(3-36)] | ≥ 1000 | >3.6 | ≥ 1000 | >3.6 |  |  | 
2 | IRPEAPGEDASPEELERYYASLRHYLQK([AEEA-AEEA-γGlu-C18 diacid])VTRQRY-NH2 |  |  |  |  | ≥ 1000 | ≥ 1000 | 274
